Results taken from patent US20220184071A1, “GEPOTIDACIN FOR USE IN THE TREATMENT OF BACTERIAL URINARY TRACT INFECTIONS” (GlaxoSmithKline Intellectual Property Development Limited, priority 2019, published 2022).
≈ marks a conversion by molar mass, not a printed value. Where two headings read alike, the source gives them in different places.

Tests used:
[1] = system: P. aeruginosa; assay: MIC by CLSI agar dilution, Example 1 Method 2; type: cell-based, Pseudomonas aeruginosa; conditions: n = 55
Experimental: (§1) Antimicrobial activity was determined in a second study by […] using the CLSI recommended procedure in serial two-fold dilutions and the minimum inhibitory concentration (MIC) was determined as the lowest concentration of the compound that inhibited visible growth.
(§2) MICs were determined according to CLSI agar dilution guidelines.

[2] = system: Fusobacterium spp.; assay: MIC by CLSI agar dilution, Example 6 second study; type: cell-based; conditions: 3 isolates
Excerpt: (§3) A second study tested gepotidacin by CLSI agar dilution against gram-positive and gram-negative anaerobic bacterial isolates from the GlaxoSmithKline Upper Providence culture collection. Amoxicillin, azithromycin, levofloxacin, and cefuroxime were included as comparators.

[3] = system: Peptostreptococcus spp.; assay: MIC by CLSI agar dilution, Example 6 second study; type: cell-based; conditions: 4 isolates
Excerpt: as §3

[4] = system: Prevotella spp.; assay: MIC by CLSI agar dilution, Example 6 second study; type: cell-based; conditions: 1 isolate
Excerpt: as §3

[5] = system: Clostridium bifermentans; assay: MIC by CLSI agar dilution, Example 6 second study; type: cell-based; conditions: Paraclostridium bifermentans; 1 isolate
Excerpt: as §3

[6] = system: S. epidermidis; assay: MIC by CLSI broth microdilution, Example 5 second study (skin and soft tissue isolates); type: cell-based; conditions: Staphylococcus epidermidis; 13 isolates, 2013-2014
Excerpt: A second study tested gepotidacin by CLSI broth microdilution against bacterial isolates collected from patients with acute bacterial skin and soft tissue infections between 2013-2014. Amoxicillin/clavulanic acid, linezolid, fusidic acid, ceftriaxone, ceftaroline, vancomycin, penicillin, quinupristin/dalfopristin, erythromycin, clindamycin, meropenem, tetracycline, chloramphenicol, flucloxacillin, telavancin, daptomycin, trimethoprim/sulfamethoxazole, gentamicin, levofloxacin, tigecycline and cefuroxime were included as comparators. MICs were determined by broth microdilution according to CLSI methods.

[7] = system: A. baumannii; assay: MIC by CLSI agar dilution, Example 1 Method 2; type: cell-based, Acinetobacter baumannii; conditions: n = 60
Experimental: as §1, §2

[8] = Pharmacokinetics in infected mice (plasma, kidney, thigh; PopPK); type: in vivo, mouse
Experimental: PK and PD studies using gepotidacin were conducted in murine (male CD-1 mice) thigh and kidney infections. The administered doses ranged from 1 to 200 mg/kg SC every 6 hours starting 1h post infection. Infected tissues were evaluated for bacterial burden at 24 h post infection (baseline controls at 1 h post infection).
Plasma and tissue samples (kidney or thigh homogenates) were collected at 15, 30, 60, 120, 240 and 360 minutes. A population PK (PopPK) model was built in NONMEM using plasma exposures.
Specific pathogen free male CD-1 mice weighing ˜27 g were used throughout the PK and PD studies. For most studies, mice were rendered neutropenic with two IP doses of cyclophosphamide on day −4 (150 mg/kg) and day −1 (100 mg/kg). Plasma and tissue samples (kidney and/or thigh) were collected at 15, 30, 60, 120, 240 and 360 minutes post dose from competent or neutropenic infected mice (N=3/group) following a single subcutaneous (SC) dose of 6.25-200 mg/kg. Samples were assayed by LC/MS/MS; the lower limit of quantification was 0.05 ug/mL.
Non-compartmental Analysis (NCA): plasma NCA was conducted using Phoenix WinNonLin 6.3 (Pharsight) with the linear up log down method.
Population Pharmacokinetics (PopPK): • Total drug concentrations in plasma were converted to free drug values based on protein binding of 24% in mice. • A PopPK model was built to describe the drug exposure in plasma over time using NONMEM (7.3) and the software R (version 3.4.0) for diagnostic plots. • The final model was used to simulate exposures at the multiple dose levels evaluated in the efficacy studies.

[9] = system: Staphylococcus saprophyticus; assay: MIC by CLSI broth microdilution, Example 1 Method 1; type: cell-based
Experimental: Unless otherwise stated, the Clinical and Laboratory Standards Institute (CLSI) recommended procedure is as set out in the edition of CLSI Approved Standard […]. Methods for Dilution Antimicrobial Susceptibility Tests for Bacteria That Grow Aerobically” at the time of testing. Antimicrobial activity was determined by broth microdilution using the CLSI recommended procedure. Gepotidacin was tested in serial two-fold dilutions and the minimum inhibitory concentration (MIC) was determined as the lowest concentration of the compound that inhibited visible growth. Gepotidacin was tested against 28 strains of Staphylococcus saprophyticus collected from multiple hospitals. Amoxicillin, azithromycin, levofloxacin and cefuroxime were included as comparators. MICs for gepotidacin and comparators were determined by broth microdilution according to CLSI methods.

[10] = system: viridans streptococci; assay: MIC by CLSI broth microdilution, Example 5 Method 1; type: cell-based; conditions: 105 isolates
Experimental: (§4) Gepotidacin was tested against 101 coagulase-negative staphylococci and 105 viridans streptococci in serial two-fold dilutions and the minimum inhibitory concentration (MIC) was determined as the lowest concentration of the compound that inhibited visible growth. All of the clinical isolates were collected in 2009-2012 from patient infections from North America, Europe, Latin America and Asia-Pacific medical centers and were mainly obtained from patients with documented nosocomial and community-acquired respiratory tract infections, bloodstream infections and skin and skin structure infections. Ceftriaxone, meropenem, penicillin, levofloxacin, moxifloxacin and linezolid were included as comparators when testing the viridans streptococci isolates. Oxacillin, levofloxacin, moxifloxacin and linezolid, were included as comparators when testing the coagulase-negative staphylococci isolates. MICs were determined by broth microdilution according to CLSI methods.

[11] = system: coagulase-negative staphylococci; assay: as above; type: cell-based
Experimental: as §4

[12] = system: S. saprophyticus; assay: MIC by CLSI agar dilution, Example 1 Method 2; type: cell-based, Staphylococcus saprophyticus
Experimental: as §1
This study tested gepotidacin by CLSI agar dilution against 51 isolates of S. saprophyticus collected between 2005-2018.
Amikacin, ceftazidime, colistin, fosfomycin, levofloxacin, meropenem, nitrofurantoin and trimethoprim-sulfamethoxazole were included as comparators. MICs for and comparators were determined by agar dilution according CLSI methods.
as §2

Structure (SMILES): O=c1ccc2ncc(=O)n3c2n1C[C@H]3CN1CCC(NCc2cc3c(cn2)OCCC3)CC1 [gepotidacin, (2R)-2-({4-[(3,4-dihydro-2H-pyrano[2,3-c]pyridin-6-ylmethyl)amino]-1-piperidinyl}methyl)-1,2-dihydro-3H,8H-2a,5,8a-triazaacenaphthylene-3,8-dione]
- MIC50 ([1]; Pseudomonas aeruginosa): 8 µg/mL (≈ 17.8 µM)
- MIC90 ([1]; Pseudomonas aeruginosa): 32 µg/mL (≈ 71.3 µM)
- Number of Isolates at Gepotidacin MIC 0.5 mg/L [1]: 1
- Number of Isolates at Gepotidacin MIC 1 mg/L [1]: 2
- Number of Isolates at Gepotidacin MIC 2 mg/L [1]: 4
- Number of Isolates at Gepotidacin MIC 4 mg/L [1]: 18
- Number of Isolates at Gepotidacin MIC 8 mg/L [1]: 15
- Number of Isolates at Gepotidacin MIC ≥16 mg/L [1]: 15
- MIC [2]: 0.12 to 1 µg/mL (≈ 0.268 to 2.23 µM)
- MIC [3]: 0.12 to 2 µg/mL (≈ 0.268 to 4.46 µM)
- MIC [4]: 4 µg/mL (≈ 8.92 µM)
- MIC [5]: 0.06 µg/mL (≈ 0.134 µM)
- MIC90 [6]: 0.25 µg/mL (≈ 0.557 µM)
- MIC50 ([7]; Acinetobacter baumannii): 32 µg/mL (≈ 71.3 µM)
- MIC90 ([7]; Acinetobacter baumannii): 64 µg/mL (≈ 143 µM)
- Number of Isolates at Gepotidacin MIC 8 mg/L [7]: 7
- Number of Isolates at Gepotidacin MIC ≥16 mg/L [7]: 53
- duration of infusion ([8]; PopPK final parameter estimate, plasma): 0.262 h
- AUC0-6 in kidney, fold higher than in plasma ([8]; SC dosing, infected mice): 4- to 5 fold
- AUC0-6 in thigh relative to plasma ([8]; SC dosing, infected mice): approximately half of plasma
- clearance ([8]; male, CD-1, mouse, subcutaneous, PopPK final parameter estimate, plasma): 1.73 mL/min
- Vd ([8]; male, CD-1, mouse, subcutaneous, PopPK final parameter estimate, plasma, read-out: volume of distribution): 0.151 L
- fraction unbound ([8]; mouse, plasma, mice, read-out: protein binding (converted)): 0.76
- MIC90 ([9]; 28 isolates): 0.125 µg/mL (≈ 0.279 µM)
- MIC90 ([9]; conclusion to Methods 1 and 2): 0.12 µg/mL (≈ 0.268 µM)
- MIC90 [10]: 0.5 µg/mL (≈ 1.11 µM)
- MIC90 ([11]; 101 isolates): 0.5 µg/mL (≈ 1.11 µM)
- MIC90 fold lower than the comparators tested ([11]; coagulase-negative staphylococci and viridans streptococci, except meropenem and moxifloxacin against viridans group streptococci): 2 to 64 fold
- % of isolates with MIC ≤0.125 mg/L ([12]; 51 isolates): 100%
- MIC90 ([12]; Staphylococcus saprophyticus, 51 isolates collected 2005-2018, read-out: MIC90): 0.125 µg/mL (≈ 0.279 µM)
- MIC ([12]; Staphylococcus saprophyticus, 51 isolates, read-out: MICs for all S. saprophyticus): ≤ 0.125 µg/mL
- MIC50 ([12]; Staphylococcus saprophyticus, n = 51): ≤ 0.06 µg/mL
- MIC90 ([12]; n = 51): 0.125 µg/mL (≈ 0.279 µM)
- Number of Isolates at Gepotidacin MIC ≤0.25 mg/L ([12]; n = 51): 51
